Test results reported in PubChem BioAssay (NCI).
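Briefly, cells in 96-well plates were exposed to five compound concentrations for 48 h, and endpoints were estimated by linear interpolation. TGI: concentration producing complete growth inhibition.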

What was measured:
Assay in all cases: NCI anticancer screen, dose series, 48 h
OVCAR-3 ovarian = test system: OVCAR-3 ovarian
A549 NSCLC = test system: A549 NSCLC
SNB-19 CNS = test system: SNB-19 CNS
UO-31 renal = test system: UO-31 renal
TK-10 renal = test system: TK-10 renal
HOP-62 NSCLC = test system: HOP-62 NSCLC
UACC-62 melanoma = test system: UACC-62 melanoma
M14 melanoma = test system: M14 melanoma
SNB-75 CNS = test system: SNB-75 CNS
LXFL 529 NSCLC = test system: LXFL 529 NSCLC
OVCAR-8 ovarian = test system: OVCAR-8 ovarian
IGROV1 ovarian = test system: IGROV1 ovarian
EKVX NSCLC = test system: EKVX NSCLC
HT29 colon = test system: HT29 colon
RXF 393 renal = test system: RXF 393 renal
OVCAR-5 ovarian = test system: OVCAR-5 ovarian
SF-295 CNS = test system: SF-295 CNS
SK-OV-3 ovarian = test system: SK-OV-3 ovarian
HOP-92 NSCLC = test system: HOP-92 NSCLC
MALME-3M melanoma = test system: MALME-3M melanoma
U251 CNS = test system: U251 CNS
NCI-H23 lung = test system: NCI-H23 lung
DLD-1 colon = test system: DLD-1 colon
SK-MEL-28 melanoma = test system: SK-MEL-28 melanoma
SF-539 CNS = test system: SF-539 CNS
M19-MEL melanoma = test system: M19-MEL melanoma
KM20L2 colon = test system: KM20L2 colon
786-0 renal = test system: 786-0 renal
SN12C renal = test system: SN12C renal
KM12 colon = test system: KM12 colon
HCT-15 colon = test system: HCT-15 colon
HCC-2998 colon = test system: HCC-2998 colon
SW-620 colon = test system: SW-620 colon
HCT-116 colon = test system: HCT-116 colon
CAKI-1 renal = test system: CAKI-1 renal
SF-268 CNS = test system: SF-268 CNS
NCI-H522 lung = test system: NCI-H522 lung
K-562 leukemia = test system: K-562 leukemia
DMS 114 small cell lung = test system: DMS 114 small cell lung
SK-MEL-2 melanoma = test system: SK-MEL-2 melanoma
SK-MEL-5 melanoma = test system: SK-MEL-5 melanoma
SR leukemia = test system: SR leukemia
MOLT-4 leukemia = test system: MOLT-4 leukemia
A498 renal = test system: A498 renal
CCRF-CEM leukemia = test system: CCRF-CEM leukemia
OVCAR-4 ovarian = test system: OVCAR-4 ovarian
RPMI-8226 leukemia = test system: RPMI-8226 leukemia
COLO 205 colon = test system: COLO 205 colon
UACC-257 melanoma = test system: UACC-257 melanoma
HS 578T breast = test system: HS 578T breast
NCI-H226 lung = test system: NCI-H226 lung
ACHN renal = test system: ACHN renal
LOX IMVI melanoma = test system: LOX IMVI melanoma
NCI-H460 lung = test system: NCI-H460 lung
HL-60(TB) leukemia = test system: HL-60(TB) leukemia
T-47D breast = test system: T-47D breast
DU-145 prostate = test system: DU-145 prostate
MDA-MB-231 breast = test system: MDA-MB-231 breast
PC-3 prostate = test system: PC-3 prostate
MDA-MB-435 = test system: MDA-MB-435
BT-549 breast = test system: BT-549 breast
NCI/ADR-RES ovarian = test system: NCI/ADR-RES ovarian
MCF7 breast = test system: MCF7 breast
MDA-N = test system: MDA-N

`COC(=O)C1(C)NCCc2c1[nH]c1ccccc21` (stereo not given) gave a TGI (OVCAR-3 ovarian) greater than 100 µM, a TGI (A549 NSCLC) greater than 100 µM and a TGI (SNB-19 CNS) greater than 100 µM. The TGI (UO-31 renal) was greater than 100 µM, the TGI (TK-10 renal) was greater than 100 µM and the TGI (HOP-62 NSCLC) was greater than 100 µM. For the same molecule, the TGI (UACC-62 melanoma) was greater than 100 µM, the TGI (M14 melanoma) was greater than 100 µM and the TGI (SNB-75 CNS) was greater than 100 µM. For the same molecule, the TGI (LXFL 529 NSCLC) was greater than 100 µM, the TGI (OVCAR-8 ovarian) was greater than 100 µM and the TGI (IGROV1 ovarian) was greater than 100 µM. It also gave a TGI (EKVX NSCLC) greater than 100 µM, a TGI (HT29 colon) greater than 100 µM and a TGI (RXF 393 renal) greater than 100 µM. It also gave a TGI (OVCAR-5 ovarian) greater than 100 µM, a TGI (SF-295 CNS) greater than 100 µM and a TGI (SK-OV-3 ovarian) greater than 100 µM. For the same molecule, the TGI (HOP-92 NSCLC) was greater than 100 µM, the TGI (MALME-3M melanoma) was greater than 100 µM and the TGI (U251 CNS) was greater than 100 µM. For the same molecule, the TGI (NCI-H23 lung) was greater than 100 µM, the TGI (DLD-1 colon) was greater than 100 µM and the TGI (SK-MEL-28 melanoma) was greater than 100 µM. For the same molecule, the TGI (SF-539 CNS) was greater than 100 µM, the TGI (M19-MEL melanoma) was greater than 100 µM and the TGI (KM20L2 colon) was greater than 100 µM. The TGI (786-0 renal) was greater than 100 µM, the TGI (SN12C renal) was greater than 100 µM and the TGI (KM12 colon) was greater than 100 µM. For the same molecule, the TGI (HCT-15 colon) was greater than 100 µM, the TGI (HCC-2998 colon) was greater than 100 µM and the TGI (SW-620 colon) was greater than 100 µM. The TGI (HCT-116 colon) was greater than 100 µM, the TGI (CAKI-1 renal) was greater than 100 µM and the TGI (SF-268 CNS) was greater than 100 µM. The TGI (NCI-H522 lung) was greater than 100 µM, the TGI (K-562 leukemia) was greater than 100 µM and the TGI (DMS 114 small cell lung) was greater than 100 µM. It also gave a TGI (SK-MEL-2 melanoma) greater than 100 µM, a TGI (SK-MEL-5 melanoma) greater than 100 µM and a TGI (SR leukemia) greater than 100 µM. The TGI (MOLT-4 leukemia) was greater than 100 µM, the TGI (A498 renal) was greater than 100 µM and the TGI (CCRF-CEM leukemia) was greater than 100 µM. The TGI (OVCAR-4 ovarian) was greater than 100 µM, the TGI (RPMI-8226 leukemia) was greater than 100 µM and the TGI (COLO 205 colon) was greater than 100 µM.

Molecule `Nc1nc(=S)n(-c2ccc(Cl)cc2)c2nc3ccccc3cc12` has a TGI (OVCAR-3 ovarian) greater than 100 µM, a TGI (A549 NSCLC) greater than 100 µM and a TGI (SNB-19 CNS) greater than 100 µM. For the same molecule, the TGI (UACC-257 melanoma) was greater than 100 µM, the TGI (HS 578T breast) was greater than 100 µM and the TGI (UO-31 renal) was greater than 100 µM. The TGI (TK-10 renal) was 98.3 µM, the TGI (NCI-H226 lung) was greater than 100 µM and the TGI (HOP-62 NSCLC) was greater than 100 µM. It also gave a TGI (UACC-62 melanoma) greater than 100 µM, a TGI (M14 melanoma) greater than 100 µM and a TGI (SNB-75 CNS) of 97 µM. For the same molecule, the TGI (OVCAR-8 ovarian) was greater than 100 µM, the TGI (IGROV1 ovarian) was greater than 100 µM and the TGI (EKVX NSCLC) was greater than 100 µM. The TGI (HT29 colon) was greater than 100 µM, the TGI (RXF 393 renal) was greater than 100 µM and the TGI (OVCAR-5 ovarian) was greater than 100 µM. The TGI (SF-295 CNS) was greater than 100 µM, the TGI (SK-OV-3 ovarian) was greater than 100 µM and the TGI (ACHN renal) was greater than 100 µM. The TGI (HOP-92 NSCLC) was 83.7 µM, the TGI (MALME-3M melanoma) was greater than 100 µM and the TGI (U251 CNS) was greater than 100 µM. The TGI (LOX IMVI melanoma) was greater than 100 µM, the TGI (NCI-H23 lung) was greater than 100 µM and the TGI (NCI-H460 lung) was greater than 100 µM. For the same molecule, the TGI (SK-MEL-28 melanoma) was greater than 100 µM, the TGI (HL-60(TB) leukemia) was greater than 100 µM and the TGI (T-47D breast) was greater than 100 µM. It also gave a TGI (786-0 renal) greater than 100 µM, a TGI (SN12C renal) greater than 100 µM and a TGI (KM12 colon) greater than 100 µM. For the same molecule, the TGI (DU-145 prostate) was greater than 100 µM, the TGI (MDA-MB-231 breast) was greater than 100 µM and the TGI (PC-3 prostate) was greater than 100 µM. For the same molecule, the TGI (MDA-MB-435) was greater than 100 µM, the TGI (HCT-15 colon) was greater than 100 µM and the TGI (HCC-2998 colon) was greater than 100 µM. For the same molecule, the TGI (SW-620 colon) was greater than 100 µM, the TGI (HCT-116 colon) was greater than 100 µM and the TGI (CAKI-1 renal) was greater than 100 µM. The TGI (BT-549 breast) was 67.1 µM, the TGI (NCI/ADR-RES ovarian) was greater than 100 µM and the TGI (MCF7 breast) was greater than 100 µM. It also gave a TGI (SF-268 CNS) greater than 100 µM, a TGI (MDA-N) greater than 100 µM and a TGI (NCI-H522 lung) greater than 100 µM. It also gave a TGI (K-562 leukemia) greater than 100 µM, a TGI (SK-MEL-2 melanoma) greater than 100 µM and a TGI (SK-MEL-5 melanoma) greater than 100 µM. It also gave a TGI (SR leukemia) greater than 100 µM, a TGI (A498 renal) greater than 100 µM and a TGI (CCRF-CEM leukemia) greater than 100 µM. For the same molecule, the TGI (OVCAR-4 ovarian) was greater than 100 µM, the TGI (RPMI-8226 leukemia) was greater than 100 µM and the TGI (COLO 205 colon) was greater than 100 µM.
